Measured values: ChEMBL document CHEMBL1158702, “Cytotoxic 4-phenylcoumarins from the leaves of Marila pluricostata” (2005)
In brackets after ≈: the same amount, converted by molar mass.

How the values were obtained:
Assay type in all cases: functional
[1] = system: NCI-H460; experiment: Cytotoxicity against human H460 cells
[2] = system: SF-268; experiment: Cytotoxicity against human SF268 cells
[3] = system: MCF7; experiment: Cytotoxicity against human MCF7 cells

| SMILES | GI50 [1] | GI50 [2] | GI50 [3] |
| --- | --- | --- | --- |
| CCC(C)C(=O)c1c(O)c(CC=C(C)C)c2oc(=O)cc(-c3ccccc3)c2c1O (configuration not stated) | 0.1 µg/mL (≈ 0.246 µM) | 0.1 µg/mL (≈ 0.246 µM) | 0.2 µg/mL (≈ 0.492 µM) |
| COc1c(C(=O)CC(C)C)c(O)c(CC=C(C)C)c2oc(=O)cc(-c3ccccc3)c12 | 0.5 µg/mL (≈ 1.19 µM) | 0.4 µg/mL (≈ 0.951 µM) | 0.4 µg/mL (≈ 0.951 µM) |
| CC(C)=CCc1c(O)cc(O)c2c(-c3ccccc3)cc(=O)oc12 | 4.4 µg/mL (≈ 13.6 µM) | 4.8 µg/mL (≈ 14.9 µM) | 3.4 µg/mL (≈ 10.5 µM) |
| CCC(C)C(=O)c1c2c(c3oc(=O)cc(-c4ccccc4)c3c1O)C=CC(C)(C)O2 (configuration not stated) | > 10 µg/mL | > 10 µg/mL | 9.6 µg/mL (≈ 23.7 µM) |
| CC1(C)CCc2c(cc(O)c3c(-c4ccccc4)cc(=O)oc23)O1 | 6.7 µg/mL (≈ 20.8 µM) | 7.8 µg/mL (≈ 24.2 µM) | 5.7 µg/mL (≈ 17.7 µM) |
| CCC(=O)c1c2c(c3oc(=O)cc(-c4ccccc4)c3c1O)CCC(C)(C)O2 | 5.7 µg/mL (≈ 15.1 µM) | 6.8 µg/mL (≈ 18 µM) | 4.7 µg/mL (≈ 12.4 µM) |
| CCC(C)C(=O)c1c2c(c3oc(=O)cc(-c4ccccc4)c3c1O)C[C@@H](C(C)(C)O)O2 (some centres not stated) | 4.4 µg/mL (≈ 10.4 µM) | 4.8 µg/mL (≈ 11.4 µM) | 3.4 µg/mL (≈ 8.05 µM) |
| CCC(C)C(=O)c1c(O)c(CC=C(C)C)c(O)c2c(-c3ccccc3)cc(=O)oc12 (configuration not stated) | 0.3 µg/mL (≈ 0.738 µM) | 0.1 µg/mL (≈ 0.246 µM) | 0.2 µg/mL (≈ 0.492 µM) |
| CC(C)CC(=O)c1c2c(c3oc(=O)cc(-c4ccccc4)c3c1O)C[C@@H](C(C)(C)O)O2 [CYCLOMAMMEISIN] | 4.6 µg/mL (≈ 10.9 µM) | 5.2 µg/mL (≈ 12.3 µM) | 4.2 µg/mL (≈ 9.94 µM) |
| C=C(C)C(O)Cc1c(O)c(C(=O)CC(C)C)c(O)c2c(-c3ccccc3)cc(=O)oc12 (configuration not stated) [DISPARINOL A] | 0.6 µg/mL (≈ 1.42 µM) | 0.5 µg/mL (≈ 1.18 µM) | 0.9 µg/mL (≈ 2.13 µM) |
| CC(C)CC(=O)c1c(O)cc(O)c2c(-c3ccccc3)cc(=O)oc12 [ISODISPAR B] | 1.9 µg/mL (≈ 5.62 µM) | 1.8 µg/mL (≈ 5.32 µM) | 1.5 µg/mL (≈ 4.43 µM) |
| CC(C)=CCc1c(O)c(C(=O)CC(C)C)c2oc(=O)cc(-c3ccccc3)c2c1O [ISOMAMMEISIN] | 0.8 µg/mL (≈ 1.97 µM) | 0.6 µg/mL (≈ 1.48 µM) | 0.7 µg/mL (≈ 1.72 µM) |
| CC(C)=CCc1c(O)c(C(=O)C(C)C)c2oc(=O)cc(-c3ccccc3)c2c1O [ISOMESUOL] | 0.6 µg/mL (≈ 1.53 µM) | 0.6 µg/mL (≈ 1.53 µM) | 0.7 µg/mL (≈ 1.78 µM) |
| CC(C)CC(=O)c1c2c(c3oc(=O)cc(-c4ccccc4)c3c1O)C=CC(C)(C)O2 [MAMMEIGIN] | > 10 µg/mL | > 10 µg/mL | > 10 µg/mL |
| CC(=O)Oc1c(C(=O)CC(C)C)c(OC(C)=O)c2c(-c3ccccc3)cc(=O)oc2c1CC=C(C)C [MAMMEISIN DIACETATE] | 0.6 µg/mL | 0.5 µg/mL | 0.6 µg/mL |
| CC(C)=CCc1c(O)c(C(=O)CC(C)C)c(O)c2c(-c3ccccc3)cc(=O)oc12 [MAMMEISIN] | 0.2 µg/mL (≈ 0.492 µM) | 0.1 µg/mL (≈ 0.246 µM) | 0.2 µg/mL (≈ 0.492 µM) |
| CC(C)C(=O)c1c2c(c3oc(=O)cc(-c4ccccc4)c3c1O)C=CC(C)(C)O2 [MESUAGIN] | > 10 µg/mL | > 10 µg/mL | > 10 µg/mL |
| CC(C)C(=O)c1c2c(c3oc(=O)cc(-c4ccccc4)c3c1O)C[C@@H](C(C)(C)O)O2 [MESUOL CYCLO F] | 6.1 µg/mL (≈ 14.9 µM) | 6.4 µg/mL (≈ 15.7 µM) | 5.8 µg/mL (≈ 14.2 µM) |
| CC(C)=CCc1c(O)c(C(=O)C(C)C)c(O)c2c(-c3ccccc3)cc(=O)oc12 [MESUOL] | 0.3 µg/mL (≈ 0.764 µM) | 0.1 µg/mL (≈ 0.255 µM) | 0.2 µg/mL (≈ 0.51 µM) |
